From patent publication US9593149B2, “Amylin and calcitonin receptor agonist” (Novo Nordisk A/S, priority 2014, dated 2017)
Values after ≈ are worked out from the molar mass of the structure shown. Numbered stars: 1 amine (or outer) side, 2 acyl side, 3 side chain; on linkers, the order of the positions; unused ones are H or OH. Peptide text beside a SMILES is read from it. * marks the point of attachment. C20 diacid = O=C(O)CCCCCCCCCCCCCCCCCCC(=O)*; γGlu = O=C(O)[C@H](CCC(=O)[*:2])N[*:1]

Test: Assay (IV) determination of solubility
Assay type: physicochemical
Method: Assay (IV)—Determination of Solubility
The mimylin peptide was dissolved in water at ˜500 nmol/ml and mixed 1:1 with a series of buffers (100 mM glycylglycine pH 3.0, 100 mM glycylglycine pH 4.0, 100 mM glycylglycine pH 5.0, 100 mM bistrispropane pH 6.0, 100 mM bistrispropane pH 6.5, 100 mM bistrispropane pH 7.0, 100 mM bistrispropane pH 7.5, 100 mM bistrispropane pH 8.0).

Row | Solubility (pH 3.0) | solubility at 18 h (pH 4.0) | solubility at 18 h (pH 5.0) | Solubility (pH 6.0) | Solubility (pH 6.5) | Solubility (pH 7.0) | Solubility (pH 7.5) | Solubility (pH 8.0) | Solubility (pH 4.0) | solubility at 18 h (pH 6.0) | solubility at 18 h (pH 6.5) | solubility at 18 h (pH 7.0) | solubility at 18 h (pH 7.5) | solubility at 18 h (pH 8.0) | SMILES
1 | ≧200 μM | 195 µM (≈ 751 µg/mL) | 57 µM (≈ 219 µg/mL) | ≧200 μM | ≧200 μM | ≧200 μM | ≧200 μM | ≧200 μM |  |  |  |  |  |  | CC(C)C[C@H](NC(=O)CNC(=O)[C@H](CO)NC(=O)[C@H](C)NC(=O)CC[C@H](NC(=O)CCCCCCCCCCCCCCCCCCC(=O)O)C(=O)O)C(=O)N[C@@H](CO)C(=O)N[C@H](C(=O)N[C@@H](C)C(=O)N[C@@H](C)C(=O)N[C@@H](CC(C)C)C(=O)NCC(=O)N[C@@H](CCCNC(=N)N)C(=O)N[C@@H](CC(C)C)C(=O)N[C@@H](CO)C(=O)N[C@@H](CCC(=O)O)C(=O)N[C@@H](CCC(=O)O)C(=O)N[C@@H](CC(C)C)C(=O)N[C@@H](Cc1cnc[nH]1)C(=O)N[C@@H](CCC(=O)O)C(=O)N[C@@H](CC(C)C)C(=O)N[C@@H](CCC(N)=O)C(=O)N[C@H](C(=O)N[C@@H](Cc1ccc(O)cc1)C(=O)N1CCC[C@H]1C(=O)N[C@@H](CCCNC(=N)N)C(=O)N[C@H](C(=O)N[C@@H](CCC(=O)O)C(=O)N[C@H](C(=O)NCC(=O)N[C@@H](CO)C(=O)NCC(=O)N[C@H](C(=O)N[C@@H](Cc1ccc(O)cc1)C(N)=O)[C@@H](C)O)[C@@H](C)O)[C@@H](C)O)[C@@H](C)O)[C@@H](C)O [compound 113, [N-terminal(C20 diacid-gGlu), des1, 4G, 15E, 21Q, 23Y, 30S, 31G, 32T, 33Y]mimylin] ({C20 diacid-γGlu}-ASGLSTAALGRLSEELHELQTYPRTETGSGTY-NH2)
2 | ≧200 μM | 2 µM (≈ 7.75 µg/mL) | 8 µM (≈ 31 µg/mL) |  |  |  |  |  |  | 17 µM (≈ 65.9 µg/mL) | 5 µM (≈ 19.4 µg/mL) | 26 µM (≈ 101 µg/mL) | 90 µM (≈ 349 µg/mL) | 173 µM (≈ 671 µg/mL) | CC(C)C[C@H](NC(=O)CNC(=O)[C@H](CO)NC(=O)[C@H](C)NC(=O)CC[C@H](NC(=O)CCCCCCCCCCCCCCCCCCC(=O)O)C(=O)O)C(=O)N[C@@H](CO)C(=O)N[C@H](C(=O)N[C@@H](C)C(=O)N[C@H](C(=O)N[C@@H](CC(C)C)C(=O)NCC(=O)N[C@@H](CCCNC(=N)N)C(=O)N[C@@H](CC(C)C)C(=O)N[C@@H](CO)C(=O)N[C@@H](CCC(N)=O)C(=O)N[C@@H](CCC(=O)O)C(=O)N[C@@H](CC(C)C)C(=O)N[C@@H](Cc1cnc[nH]1)C(=O)N[C@@H](CCC(=O)O)C(=O)N[C@@H](CC(C)C)C(=O)N[C@@H](CCC(N)=O)C(=O)N[C@H](C(=O)N[C@@H](Cc1ccc(O)cc1)C(=O)N1CCC[C@H]1C(=O)N[C@@H](CCCNC(=N)N)C(=O)N[C@H](C(=O)N[C@@H](CCC(=O)O)C(=O)N[C@H](C(=O)NCC(=O)N[C@@H](CO)C(=O)NCC(=O)N[C@H](C(=O)N[C@@H](Cc1ccc(O)cc1)C(N)=O)[C@@H](C)O)[C@@H](C)O)[C@@H](C)O)[C@@H](C)O)C(C)C)[C@@H](C)O [compound 118, [N-terminal(C20 diacid-gGlu), des1, 4G, 9V, 15Q, 21Q, 23Y, 30S, 31G, 32T, 33Y]mimylin]

Further lines, the molecule ahead of its results:

Row | SMILES | Solubility (pH 3.0) | solubility at 18 h (pH 4.0) | solubility at 18 h (pH 5.0) | Solubility (pH 6.0) | Solubility (pH 6.5) | Solubility (pH 7.0) | Solubility (pH 7.5) | Solubility (pH 8.0) | Solubility (pH 4.0) | solubility at 18 h (pH 6.0) | solubility at 18 h (pH 6.5) | solubility at 18 h (pH 7.0) | solubility at 18 h (pH 7.5) | solubility at 18 h (pH 8.0)
3 | CC(C)C[C@H](NC(=O)CNC(=O)[C@H](CO)NC(=O)[C@H](C)NC(=O)CC[C@H](NC(=O)CCCCCCCCCCCCCCCCCCC(=O)O)C(=O)O)C(=O)N[C@@H](CO)C(=O)N[C@H](C(=O)N[C@@H](C)C(=O)N[C@@H](C)C(=O)N[C@@H](CC(C)C)C(=O)NCC(=O)N[C@@H](CCCNC(=N)N)C(=O)N[C@@H](CC(C)C)C(=O)N[C@@H](CO)C(=O)N[C@H](C(=O)N[C@@H](CCC(=O)O)C(=O)N[C@@H](CC(C)C)C(=O)N[C@@H](Cc1cnc[nH]1)C(=O)N[C@@H](CCC(=O)O)C(=O)N[C@@H](CC(C)C)C(=O)N[C@@H](CCC(=O)O)C(=O)N[C@H](C(=O)N[C@@H](Cc1ccc(O)cc1)C(=O)N1CCC[C@H]1C(=O)N[C@@H](CCCNC(=N)N)C(=O)N[C@H](C(=O)N[C@@H](CCC(=O)O)C(=O)N[C@H](C(=O)NCC(=O)N[C@@H](CO)C(=O)NCC(=O)N[C@H](C(=O)N[C@@H](Cc1ccc(O)cc1)C(N)=O)[C@@H](C)O)[C@@H](C)O)[C@@H](C)O)[C@@H](C)O)[C@@H](C)O)[C@@H](C)O [compound 112, [N-terminal(C20 diacid-gGlu), des1, 4G, 15T, 21E, 23Y, 30S, 31G, 32T, 33Y]mimylin] ({C20 diacid-γGlu}-ASGLSTAALGRLSTELHELETYPRTETGSGTY-NH2) | ≧200 μM | 132 µM (≈ 505 µg/mL) | 22 µM (≈ 84.1 µg/mL) | ≧200 μM | ≧200 μM | ≧200 μM | ≧200 μM | ≧200 μM |  |  |  |  |  | 
4 | CC(C)C[C@H](NC(=O)CNC(=O)[C@H](CO)NC(=O)[C@H](C)NC(=O)CC[C@H](NC(=O)CCCCCCCCCCCCCCCCCCC(=O)O)C(=O)O)C(=O)N[C@@H](CO)C(=O)N[C@H](C(=O)N[C@@H](C)C(=O)N[C@@H](C)C(=O)N[C@@H](CC(C)C)C(=O)NCC(=O)N[C@@H](CCCNC(=N)N)C(=O)N[C@@H](CC(C)C)C(=O)N[C@@H](CO)C(=O)N[C@@H](CCC(N)=O)C(=O)N[C@@H](CCC(=O)O)C(=O)N[C@@H](CC(C)C)C(=O)N[C@@H](Cc1cnc[nH]1)C(=O)N[C@@H](CCC(=O)O)C(=O)N[C@@H](CC(C)C)C(=O)N[C@@H](CCC(N)=O)C(=O)N[C@H](C(=O)N[C@@H](Cc1ccc(O)cc1)C(=O)N1CCC[C@H]1C(=O)N[C@@H](Cc1cnc[nH]1)C(=O)N[C@H](C(=O)N[C@@H](CCC(=O)O)C(=O)N[C@H](C(=O)NCC(=O)N[C@@H](CO)C(=O)NCC(=O)N[C@H](C(=O)N[C@@H](Cc1ccc(O)cc1)C(N)=O)[C@@H](C)O)[C@@H](C)O)[C@@H](C)O)[C@@H](C)O)[C@@H](C)O [compound 117, [N-terminal(C20 diacid-gGlu), des1, 4G, 15Q, 21Q, 23Y, 25H, 30S, 31G, 32T, 33Y]mimylin] ({C20 diacid-γGlu}-ASGLSTAALGRLSQELHELQTYPHTETGSGTY-NH2) | ≧200 μM |  | 38 µM (≈ 146 µg/mL) | ≧200 μM | ≧200 μM | ≧200 μM | ≧200 μM | ≧200 μM | ≧200 μM |  |  |  |  | 
5 | CC(C)C[C@H](NC(=O)CNC(=O)[C@H](CO)NC(=O)[C@H](C)NC(=O)CC[C@H](NC(=O)CCCCCCCCCCCCCCCCCCC(=O)O)C(=O)O)C(=O)N[C@@H](CO)C(=O)N[C@H](C(=O)N[C@@H](C)C(=O)N[C@H](C(=O)N[C@@H](CC(C)C)C(=O)NCC(=O)N[C@@H](CCCNC(=N)N)C(=O)N[C@@H](CC(C)C)C(=O)N[C@@H](CO)C(=O)N[C@@H](CCC(N)=O)C(=O)N[C@@H](CCC(=O)O)C(=O)N[C@@H](CC(C)C)C(=O)N[C@@H](Cc1cnc[nH]1)C(=O)N[C@@H](CCC(=O)O)C(=O)N[C@@H](CC(C)C)C(=O)N[C@@H](CCC(N)=O)C(=O)N[C@H](C(=O)N[C@@H](Cc1ccc(O)cc1)C(=O)N1CCC[C@H]1C(=O)N[C@@H](CCCNC(=N)N)C(=O)N[C@H](C(=O)N[C@@H](CCC(=O)O)C(=O)N[C@H](C(=O)NCC(=O)N[C@@H](CO)C(=O)N[C@@H](C)C(=O)N[C@H](C(=O)N[C@@H](Cc1ccc(O)cc1)C(N)=O)[C@@H](C)O)[C@@H](C)O)[C@@H](C)O)[C@@H](C)O)C(C)C)[C@@H](C)O [compound 122, [N-terminal(C20 diacid-gGlu), des1, 4G, 9V, 15Q, 21Q, 23Y, 30S, 31A, 32T, 33Y]mimylin] ({C20 diacid-γGlu}-ASGLSTAVLGRLSQELHELQTYPRTETGSATY-NH2) | ≧200 μM |  | 32 µM (≈ 124 µg/mL) | ≧200 μM | ≧200 μM | ≧200 μM | ≧200 μM | ≧200 μM | ≧200 μM |  |  |  |  | 
6 | CC(C)C[C@H](NC(=O)CC[C@H](NC(=O)CCCCCCCCCCCCCCCCCCC(=O)O)C(=O)O)C(=O)N[C@@H](CO)C(=O)NCC(=O)N[C@@H](CC(C)C)C(=O)N[C@@H](CO)C(=O)N[C@H](C(=O)N[C@@H](C)C(=O)N[C@H](C(=O)N[C@@H](CC(C)C)C(=O)NCC(=O)N[C@@H](CCCNC(=N)N)C(=O)N[C@@H](CC(C)C)C(=O)N[C@@H](CO)C(=O)N[C@@H](C)C(=O)N[C@@H](CCC(=O)O)C(=O)N[C@@H](CC(C)C)C(=O)N[C@@H](Cc1cnc[nH]1)C(=O)N[C@@H](CCC(=O)O)C(=O)N[C@@H](CC(C)C)C(=O)N[C@@H](CO)C(=O)N[C@H](C(=O)N[C@@H](Cc1ccc(O)cc1)C(=O)N1CCC[C@H]1C(=O)N[C@@H](CCCNC(=N)N)C(=O)N[C@H](C(=O)N[C@@H](CCC(=O)O)C(=O)N[C@H](C(=O)NCC(=O)N[C@@H](CO)C(=O)NCC(=O)N[C@H](C(=O)N[C@@H](Cc1ccc(O)cc1)C(N)=O)[C@@H](C)O)[C@@H](C)O)[C@@H](C)O)[C@@H](C)O)C(C)C)[C@@H](C)O [compound 123, [N-terminal(C20 diacid-gGlu), des1, 2L, 4G, 9V, 21S, 23Y, 30S, 31G, 32T, 33Y]mimylin] ({C20 diacid-γGlu}-LSGLSTAVLGRLSAELHELSTYPRTETGSGTY-NH2) | ≧200 μM |  | 2 µM (≈ 7.64 µg/mL) | ≧200 μM | ≧200 μM | ≧200 μM | ≧200 μM | ≧200 μM | ≧200 μM |  |  |  |  | 
